Here are results for four compounds from patent publication US20160095837A1, “MODULATION OF MITOCHONDRIAL CALCIUM UNIPORTER ACTIVITY FOR TREATING AND PREVENTING ARRHYTHMIAS” (priority 2014, published 2016).

Holding throughout (format): cell-based, mouse
Assay [1] has as its system sinoatrial nodal (SAN) pacemaker cells. Nature of the assay: Spontaneous action potential rate of single SAN cells (perforated patch clamp). The conditions noted are these: for SAN activity response to ISO: SR Ca2+ release eliminated by ryanodine or SERCA2a inhibited by thapsigargin; for SAN cell beating rate at baseline: no ISO (FIG. 10a). Here is the method:
(§1) SAN cells were placed in Tyrode's solution at 36±0.5° C. and were identified by their characteristic morphology (spindle or spider shape) and spontaneous activity. SAN cells were identified electrophysiologically by spontaneous action potentials with a slow depolarizing phase 4 and the hyperpolarization-activated current (If).^27 Spontaneous action potentials, If and ICa were recorded using the perforated (amphotericin B or β-escin in studies requiring dialysis of Ru360 and/or ATP) patch-clamp technique^28 on single SAN cells at 36±0.5° C. in Tyrode's solution. Intracellular Ca^2+ transients were recorded from single SAN cells using Fura-2 AM excited at 340 nm and 380 nm and emitted and 510 nm. Endogenous NADH from single SAN cells was measured by excitation at 350 nm and recording emitted light at 460 nm.^29 Mitochondrial Ca^2+ was measured at 535 nm from mt-pericam expressing SAN cells exited at 415 nm^20. Mitochondrial Ca^2+ entry was measured in cell membrane permeabilized cardiomyocytes isolated from DN-MCU transgenic, wild type mice and from HEK293 cells using Calcium green-5N^30.
Isolation of single SAN cells from mice was performed according to previously published methods^22, 27, 31 with minor modifications. Mice were administered an intraperitoneal injection of avertin (20 μl/g) and monitored until unresponsive. The heart was excised and placed into Tyrode's solution (35° C.), consisting of (mM) 140 NaCl, 5.0 HEPES, 5.5 Glucose, 5.4 KCl, 1.8 CaCl2, and 1.0 MgCl2. The pH was adjusted to 7.4 with NaOH. […] The SAN was cut into smaller pieces, which were transferred and rinsed in a solution containing (mM) 140 NaCl, 5.0 HEPES, 5.5 Glucose, 5.4 KCl, 0.2 CaCl2, 0.5 MgCl2, 1.2 KH2PO4, 50 Taurine and 1 mg/ml bovine serum albumin (BSA), with pH adjusted to 7.4 using NaOH. SAN tissue pieces were digested in 5 ml of solution containing collagenase type I, elastase (Worthington), and protease type XIV (Sigma) for 20-30 min. The tissue was transferred to 10 ml of Kraft-Bruhe (KB) medium containing (mM) 100 potassium glutamate, 5.0 HEPES, 20 Glucose, 25 KCl, 10 potassium aspartate, 2.0 MgSO4, 10 KH2PO4, 20 taurine, 5 creatine, 0.5 EGTA, and 1 mg/ml BSA, with pH adjusted to 7.2 using KOH. The tissue was agitated using a glass pipette for 10 min. The cells were stored at 4° C. and studied within 7 hours.
SAN cells were placed in Tyrode's solution at 36±0.5° C. SAN cells were identified by their characteristic morphology (spindle or spider shape) and spontaneous activity in all single cell experiments. SAN cells were also identified electrophysiologically by typical spontaneous action potentials with slow depolarizing phase 4 and the hyperpolarization-activated current (If) in electrophysiological experiments.
Spontaneous action potentials (APs) and If were recorded using the perforated (amphotericin B or β-escin) patch-clamp technique^28 on single SAN cell at 36±0.5° C. in Tyrode's solution (0.5 mM BaCl2 was added to the bath solution when recording If^32). The pipette was filled with (mM) 130 potassium aspartate, 10 NaCl, 10 HEPES, 0.04 CaCl2, amphotericin B 240 μg/ml with pH adjusted to 7.2 with KOH. SAN cells with stable APs lasting at least 5 min were included in the experiments. β-escin 25 μM was substituted for amphotericin B to allow dialysis of Ru360 or ATP. When recording If, membrane potential was held at −35 mV, the voltage steps were applied for 5 s ranging from −125 mV to −45 mV in 10 mV increments or vice versa.^33 ICa was measured using the perforated patch technique at […] as previously described.^22 ICa was confirmed by its sensitivity to Nifedipine 5 μM. Depolarizing voltage pulses (300 ms in duration) to various potentials (−60 mV to 60 mV in 10 mV step) were applied after 50 ms at −40 mV to inactivate INa from a holding potential of −70 mV. […]

Assay [2] relates to SERCA2a activity ([Ca2+]cyto decline). Description: Cytoplasmic Ca2+ transient decay (Fura-2 AM) in SAN cells. Here is the method:
as §1
Cytosolic Ca^2+ levels were recorded from Fura-2-loaded cells, excited at wavelengths of 340 and 380 nm, and imaged with a 510 nm long-pass filter. Single isolated SAN cells were loaded with 0.1 μM Fura-2 AM for 20 minutes, and then perfused for 20 minutes to de-esterfy the Fura-2 AM in normal Tyrode's solution. After placement on a recording chamber, the cells were perfused in normal Tyrode's solution at 36° C.±0.5. Spindle-shaped, spontaneously beating cells were chosen for experiments. Action potential recording was performed simultaneously.

In assay [3] the test system is mitochondrial Ca2+ concentration ([Ca2+]mito). Nature of the assay: Mitochondrial Ca2+ measurement with mt-pericam in cultured SAN cells. The conditions noted are these: ISO 100 nM. On the procedure: as §1
Freshly isolated mouse SAN tissue was cut into small pieces and put into 35 mm tissue culture plates with DMEM. […] Expression of the recombinant ratio-5mt-pericam and DN-MCU in SAN cells was detected by GFP fluorescence. […]

For a further assay, the system named is NADH. Nature of the assay: NADH autofluorescence in SAN cells. The following applies: ISO 100 nM. On the procedure: as §1
The autofluorescence of endogenous NADH, which derives primarily from mitochondria,^29,35 was measured as described^29. NADH was excited at 350 nm (AT350/SOX, Chroma) and fluorescence was recorded at 460 nm (ET460/50m and T400LP, Chroma). […]

The mark [4] stands for this setting: ATP dialysis, SAN cells from mice expressing phospholamban N27A.

As for `Nc1ncnc2c1ncn2[C@@H]1O[C@H](COP(=O)(O)OP(=O)(O)OP(=O)(O)O)[C@@H](O)[C@H]1O` [ATP], the “SAN cell rate response to ISO, ATP dialysis 8 mM” value in assay [1] (ATP dialysis 8 mM) is listed as “does not enhance”. Further, the “SAN rate responses to ISO, ATP dialysis alone” value in assay [1] (ATP dialysis without Ru360) is “had no affect”. Also, in assay [1] (setting [4]), the “SAN action potential frequency in N27A SAN cells” value is given as “did not significantly increase”. The “Inhibitory effect of Ru360 on SAN cell action potential frequency responses to ISO, with ATP co-dialysis” value in assay [1] (co-dialysis with ATP 4 mM and Ru360) is “reversed”. The “DN-MCU dependent loss of the ISO rate response, with ATP co-dialysis” value in assay [1] (cultured SAN cells expressing DN-MCU, ATP co-dialysis) was “rescued”. In addition, the “Basal SAN cell rates” value in assay [1] (dialysis, no ISO) was “neither Ru360 nor ATP had any affect”. For the same compound, in assay [2] (ATP 4 mM co-dialysis with Ru360, relative to ISO-stimulated values without Ru360), the “Rate of [Ca2+]cyto decline after ISO with Ru360 and ATP co-dialysis” value is given as “restored”. The “Rate of [Ca2+]cyto decline in N27A SAN cells” value in assay [2] (setting [4]) is “did not significantly increase”.
Take `CC(C)NCC(O)c1ccc(O)c(O)c1` (stereo not shown) [ISO, isoproterenol]: the “[Ca2+]mito” value in assay [3] is “caused an increase”. Further, the “Rate of action potential initiation” value in assay [1] (ISO, concentration-dependent) is listed as “increased”. The NADH fluorescence entry in the assay with NADH was “increased”. In assay [2] (ISO vs control bath solution), the “Rate of decline in [Ca2+]cyto” value is “significantly increased”.
Take `C/C=C(/C)C(=O)O[C@H]1C(C)=C2[C@H]([C@@H]1OC(=O)CCCCCCC)[C@@](C)(OC(C)=O)C[C@H](OC(=O)CCC)[C@@]1(O)[C@H]2OC(=O)[C@@]1(C)O` [thapsigargin]: in assay [1], the “SAN activity response to ISO” value is given as “significantly reduced” and the “SAN cell beating rate at baseline” value is on record as “reduce”.
Consider ryanodine, for which, in assay [1], the “SAN activity response to ISO” value is reported as “significantly reduced” and the “SAN cell beating rate at baseline” value is “reduce”.
